Data set [1] deals with Ad-EA mice (mEml4-Alk rearranged lung tumor). The data set is described as follows: Lung tumor volume by MRI and survival in Ad-EA mice. The conditions noted are these: crizotinib 40 mg/kg or lorlatinib 2 mg/kg, MRI. It is filed as in vivo, mouse.
Text: EML4-ALK transgenic (Tg) mice, which express the human EML4-ALK (E13;A20, human variant 1) driven by the SP-C promoter (henceforth referred as hEML4-ALK Tg mice), and BALB/c mice infected intratracheally with adenovirus carrying the CRISPR/Cas9 system to induce in vivo the Eml4-Alk rearrangement (E14;A20, mouse variant 1) (henceforth referred as Ad-EA mice). […] In these models, magnetic resonance imaging (MRI) (FIG. 1B) allowed precise cohort stratification and tumor follow-up.
Anatomical T2-weighted coronal images were acquired with a respiratory-triggered multislice fast spin echo RARE sequence (TR=4 s, TE=4.5 ms, Rare Factor (RF)=16, FOV=30 mm^2, Matrix=256×256, slices=16-20, slice thickness=1 mm, 2 averages, providing an in-plane spatial resolution of 117 μm) with a 7T MRI (Bruker Advance III, Ettlingen, Germany) scanner equipped with a quadrature 1H coil. Animals were anesthetized by intraperitoneal injection of a combination of ROMPUN® (Bayer, 5 mg/kg) and ZOLETIL 100® (Laboratoires Virbac, 20 mg/kg); breathing was monitored during acquisition of the MR images with a respiratory sensor (SA Instruments, Inc.). Tumor volumes and numbers of masses calculations were performed by manual segmentation (slice by slice contouring) with ITK-SNAP software (www.itksnap.org).
Syngeneic mice models transplanted with tumor cells were treated intraperitoneally with 200 μg of anti-PD-1 and/or anti-CTLA-4 (clone 9D9, Bioxcell), on days 3, 6, and 9 post-tumor transplantation (3 injections/per mouse).
The test system of data set [2] is splenocytes isolated from mice vaccinated with ALK-DNA vaccine. The data set is described as follows: IFN-γ ELISPOT screening of synthetic long peptides on splenocytes of ALK-DNA vaccinated mice. To be noted: ALK-DNA vaccine group, average ±SEM. It is filed as cell-based, mouse. How it is done:
Despite the known immunogenicity of the ALK protein, the data imply that ALK^+ mouse lung tumors induce an immune response insufficient to be activated by immune checkpoint inhibitor (ICI) treatment. Therefore, it was decided to directly investigate anti-ALK immune responses during ICI treatment by identifying the specific ALK peptides that induce T-cell mediated immune responses in mouse models. To identify the ALK-specific T-cell epitopes, an in vitro peptide screening was performed. A set of 21 overlapping synthetic long peptides (SLP), that encompassed the ALK cytoplasmic domain (FIG. 9A; Table 1), was incubated with splenocytes isolated from mice vaccinated with a vector encoding most of the ALK cytoplasmic domain (ALK-DNA vaccine) as previously described in Chiarle R, Martinengo C, Mastini C, Ambrogio C, D'Escamard V, Fori G, et al. The anaplastic lymphoma kinase is an effective oncoantigen for lymphoma vaccination.
The interferon-γ release enzyme-linked immune absorbent spot (ELISPOT) assay was performed using a commercial kit (Mouse IFN-γ ELISPOT, Mabtech, Stockholm, Sweden) according to the manufacturer's instructions. Briefly, the ELISPOT plate was prepared in sterile conditions and washed with sterile PBS (200 μL/well) for 5 times. […] All plates were evaluated by a computer assisted ELISPOT reader (CTL Immunospot analyzer, OH, USA).

A short description of data set [3]: Toxicity of the ALK vaccine in HLA-A*02:01 and HLA-B*07:02 transgenic mice. The data set is classed as in vivo, mouse. To be noted: for toxicity in vaccinated mice: HLA-A*02:01 (AMLDLLHVA) and HLA-B*07:02 (IVRCIGVSL) transgenic mice, CDN adjuvant; for CD8^+ T cells in the hypothalamus region / H&E and pan-HLA immunohistochemistry staining of the hypothalamus region / weight gain: mouse, in vivo. The source says: Transgenic mice (HLA-A*02:01 and HLA-1B*07:02) were vaccinated as shown in the schematic in FIG. 18A with either […] (SEQ ID NO: 7) or […] (SEQ ID NO: 4) peptides, respectively, and cyclic dinucleotides (CDN) adjuvant. Weight measurements were taken at discrete time points. Next, splenocytes were isolated and assayed and brain tissue was sectioned and imaged (FIG. 18C).

For data set [4], the system named is ALK-specific CD8+ T cells. Kind of data set: Vaccination of HLA B*07:02 transgenic mice, IFN-γ ELISPOT of splenocytes. It is filed as in vivo, mouse. The conditions noted are these: short and long peptide groups pooled, of 12 mice. The source says:
Transgenic mice expressing the human HLA B*07:02 were vaccinated with different peptides containing the core epitopes […] (SEQ ID NO: 4) or […] (SEQ ID NO: 3): […] (SEQ ID NO: 4) (IVRshort), […] (SEQ ID NO: 1) (IVRlong), […] (SEQ ID NO: 3) (RPRshort), […] (SEQ ID NO: 2) (RPRlong). ALK-specific CD8+ T cells responses were detected in 12/12 (100%) mice vaccinated with either the IVRshort peptide or the IVRlong peptide and in 6/12 (50%) of mice vaccinated with either the PRPshort peptide or the RPRlong (FIG. 7D). Finally, ALK-specific CD8+ T cells responses were also detected in peripheral blood mononuclear cells (PBMCs) from 3/6 (50%) ALK+ NSCLC patients when stimulated with the […] (SEQ ID NO: 4) peptide but not with the […] (SEQ ID NO: 3) peptide (FIGS. 7E and 16B; Tables 6-7). Overall, four immunogenic ALK peptides in the context of the HLA A*02:01 and B*07:02 alleles were identified by mass spectrometry that can pave the way toward the design of a human ALK vaccine.
The interferon-γ release enzyme-linked immune absorbent spot (ELISPOT) assay was performed using a commercial kit (Mouse IFN-γ ELISPOT, Mabtech, Stockholm, Sweden) according to the manufacturer's instructions. Briefly, the ELISPOT plate was prepared in sterile conditions and washed with sterile PBS (200 μL/well) for 5 times. Consecutively, the plate was conditioned with fresh DMEM medium (200 μL/well) contained 10% of the same fetal bovine serum used for the splenocytes suspension and incubated for 30 minutes at room temperature. After incubation, the medium was discarded and 2.5×10^5 splenocytes were plated in each well together with the appropriate stimuli. The plate was incubated over/night at 37° C. in humidified conditions with 5% C02. The day after, cells were discarded, and the plate was washed 5 times with PBS. Biotinylated detection anti-IFN-γ mAb (1 μg/mL) was added into the wells, followed by 2 hours of incubation at room temperature. […] All plates were evaluated by a computer assisted ELISPOT reader (CTL Immunospot analyzer, OH, USA).

Data set [5] concerns ALK-rearranged (ALK^+) NSCLC. To be noted: first-line treatment; cited from earlier work.
In data set [6] the test system is CD8^+ T cells from NSCLC patients. Kind of data set: IFN-γ ELISPOT of patient CD8^+ T cells expanded with ALK peptides. The data set is classed as cell-based, human. How it is done:
Non-small cell lung cancer (NSCLC) patients, at the Dana-Farber Cancer Institute, consented to an institutional review board (IRB)-approved correlative research protocol that allowed for review of medical records and sample collection. Lung cancer mutation status was determined using standard CLIA-certified clinical assays in the Center for Advanced Molecular Diagnostics at Brigham and Women's Hospital. For each patient, 10 mL of whole blood was collected into K3-EDTA tubes, and peripheral blood mononuclear cells (PBMCs) (peripheral blood mononuclear cells) were isolated with Ficoll-Paque Plus density separation (GE Healthcare), and consequently frozen until use.
Frozen PBMCs from patients with NSCLC were thawed, resuspended in cold RPMI containing 3% of human AB heat-inactivated serum (Sigma Aldrich), and cultured in a T-175 culture flask for 50 min. at 37° C. in 5% C02 to induce the attachment of CD14^+ monocytes to the plastic. The remaining floating PBMCs were removed with gentle washes of PBS and warm media. Monocytes were then cultured in RPMI containing 3% of human AB heat-inactivated serum, 2% Penicillin/Streptomycin, 1% Glutamine, and 25 nM HEPES with GM-CSF (120 ng/mL, Preprotech) and IL-4 (70 ng/mL, Preprotech). Fresh GM_CSF and IL-4 were added on days 3 and 5. On day 6, Poly I:C (30 μg/mL, Sigma Aldrich) was added for 24 hours to induce DCs maturation.
B cells were expanded using the CD40 system (68,69). Briefly, NIH-3T3-CD40L cells were irradiated (9600 rads) and plated in a 6 well plate (400.000 cells/well) without Gentamycin. The following day, 8×10^6 PBMCs were resuspended in 4 mL of IMDM (Glutamine, Hepes, Gibco) containing 10% human AB serum heat-inactivated (Sigma Aldrich), Transferrin (50 μg/ml, Lonza), Insulin (5 μg/ml, BioXtra), Cyclosporine A (5.5×10^−7M, Sigma Aldrich), IL-4 (2 ng/ml, Preprotech) and Gentamycin (15 μg/ml, Gibco), and co-cultured with the irradiated NIH-3T3-CD40L for 5 days. PBMCs were then counted and cultured at the same concentration together with newly irradiated NIH-3T3-CD40L for 3 more days. After 12 days 95% of the cells were CD19^+ and could be expanded similarly every 3-4 days at a concentration of 10^6/mL. B cells were always used after 15 days of culture.
CD8^+ T cells were purified using magnetic beads (CD8^+ T cell isolation Kit, Miltenyi) and co-cultured with DCs (20:1; around 10^6 CD8^+ T cells:50.000 DCs) in AIM V media (Gibco) with 5% human AB heat-inactivated serum (Sigma Aldrich), 20 units/mL IL-2 (Preprotech) and 10 ng/mL IL-7 (Preprotech). Before co-culture, DCs were pulsed with the 10 μg/mL of the desired peptide in AIM V media without serum at 37° C. in 5% CO2. Fresh IL-2 and IL-7 were added every 3-4 days. After 7 days, 3-4 million PBMCs CD8^+ T cells were co-cultured with peptide-pulsed DCs and cytokines (20-40:1 ratio). 3rd and 4th stimulation stimulations were done using 4-5 million CD8^+ T cells and peptide-pulsed irradiated B cells (ratio 4:1, 3000 rads) and fresh IL2 and IL7 (days 14 and 21). CD8^+ T-cell responses were then evaluated in an IFN-γ-ELISPOT assay (Mabtech) using peptide-pulsed B cells (1:1 ratio) as target cells. CD8^+ T cells were purified the day before the ELISPOT assay and rested overnight in media without cytokines. The ELISPOT was performed with FBS heat inactivated as recommended by the manufacturer. When the human material was limited, PBMCs or B0 cells were used in the first round of stimulation.

Ends that are not written are not given here.

As for `C[C@@H](Oc1cc(-c2cnn(C3CCNCC3)c2)cnc1N)c1c(Cl)ccc(F)c1Cl` [crizotinib], the “tumor response at the end of treatment” value in data set [1] is given as “stabilized tumors”.
With “GYQQQGLPLEAATAPGAGHYEDTILKSKNSMNQPGP [SLP21]”, the “number of IFN-γ-spots” value in data set [2] is recorded as “Weaker responses”.
Regarding AMLDLLHVA, in data set [3], the “toxicity in vaccinated mice” value was “no detectable toxicity”; the “CD8^+ T cells in the hypothalamus region” value is recorded as “Not a significant amount”; the “H&E and pan-HLA immunohistochemistry staining of the hypothalamus region” value is “healthy tissue”; the weight gain entry is reported as “the same as the control mice”.
As for FNHQNIVRCIGVSL [IVRlong], the “mice with ALK-specific CD8+ T cells responses detected” value in data set [4] was 100%.
Turning to `COc1cc(N2CCC(N3CCN(C)CC3)CC2)ccc1Nc1ncc(Cl)c(Nc2ccccc2P(C)(C)=O)n1` [brigatinib], the “time to disease progression in most patients” value in data set [5] was “three”.
With RPRPSQPSSL, the “mice with ALK-specific CD8+ T cells responses detected” value in data set [4] is given as 50%. In addition, the “Average Spots Forming Units (2 wells)/20 000 CD8^+ T cells” value (“Average Spots Forming Units” below) is recorded as 5.5 Spots Forming Units/20 000 CD8 in data set [6] (Patient 1 (ALK), IVRCIGVSL expanded); 4.5 Spots Forming Units/20 000 CD8 in data set [6] (Patient 1 (ALK), RPRPSQPSSL expanded); 27.5 Spots Forming Units/20 000 CD8 in data set [6] (Patient 2 (ALK), IVRCIGVSL expanded); 0 Spots Forming Units/20 000 CD8 in data set [6] (Patient 2 (ALK), RPRPSQPSSL expanded); 6.5 Spots Forming Units/20 000 CD8 in data set [6] (Patient 3 (ALK), IVRCIGVSL expanded); 3 Spots Forming Units/20 000 CD8 in data set [6] (Patient 3 (ALK), RPRPSQPSSL expanded). Moreover, the “Average Spots Forming Units” value in data set [6] (Patient 4 (ALK), RPRPSQPSSL expanded) was 2 Spots Forming Units/20 000 CD8; in data set [6] (Patient 5 (KRASG12V), RPRPSQPSSL expanded), 1 Spots Forming Units/20 000 CD8; in data set [6] (Patient 6 (EGFR del exon19), IVRCIGVSL expanded) it was 1.5 Spots Forming Units/20 000 CD8; in data set [6] (Patient 6 (EGFR del exon19), RPRPSQPSSL expanded) it was 10 Spots Forming Units/20 000 CD8; in data set [6] (Patient 7 (KRASG12D), IVRCIGVSL expanded), 1 Spots Forming Units/20 000 CD8; in data set [6] (Patient 7 (KRASG12D), RPRPSQPSSL expanded) it was 3 Spots Forming Units/20 000 CD8. The “Average Spots Forming Units” value in data set [6] (Patient 8 (EGFR del exon19), IVRCIGVSL expanded) is listed as 2 Spots Forming Units/20 000 CD8; in data set [6] (Patient 8 (EGFR del exon19), RPRPSQPSSL expanded), 10 Spots Forming Units/20 000 CD8.
Turning to “LTANMKEVPLFRLRHFPCGNVNYGYQQQGLPLEAAT [SLP20]”, the “number of IFN-γ-spots” value in data set [2] is given as “Weaker responses”.
As for GGDLKSFLRETRPRPSQPSSLAM [RPRlong], the “mice with ALK-specific CD8+ T cells responses detected” value in data set [4] stood at 50%.
As to IVRCIGVSL, in data set [3], the “toxicity in vaccinated mice” value is reported as “no detectable toxicity”; the “CD8^+ T cells in the hypothalamus region” value was “Not a significant amount”; the “H&E and pan-HLA immunohistochemistry staining of the hypothalamus region” value is “healthy tissue”; the weight gain entry is recorded as “the same as the control mice”.
